According to PubChem BioAssay (NCI):
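Method: 48-hour compound exposure of cells in 96-well plates, five concentrations, linear interpolation of endpoints. Here, GI50 denotes the concentration required for 50% inhibition of growth. TGI: total growth inhibition.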

How the values were obtained:
Test in all cases: DTP human tumour cell line panel, 48 h
[1] = system: CAKI-1 renal
[2] = system: MDA-MB-231 breast
[3] = system: HT29 colon
[4] = system: NCI-H522 lung
[5] = system: MDA-MB-435
[6] = system: HOP-62 NSCLC
[7] = system: SK-MEL-5 melanoma
[8] = system: SK-MEL-2 melanoma
[9] = system: HS 578T breast
[10] = system: HL-60(TB) leukemia
[11] = system: UACC-62 melanoma
[12] = system: U251 CNS
[13] = system: SK-MEL-28 melanoma
[14] = system: SF-539 CNS
[15] = system: HCT-116 colon
[16] = system: RXF 393 renal
[17] = system: BT-549 breast
[18] = system: T-47D breast
[19] = system: NCI-H460 lung
[20] = system: UO-31 renal
[21] = system: SF-268 CNS
[22] = system: SNB-19 CNS
[23] = system: UACC-257 melanoma
[24] = system: SK-OV-3 ovarian
[25] = system: MOLT-4 leukemia
[26] = system: OVCAR-8 ovarian
[27] = system: SW-620 colon
[28] = system: NCI/ADR-RES ovarian
[29] = system: NCI-H23 lung
[30] = system: MCF7 breast
[31] = system: LOX IMVI melanoma
[32] = system: OVCAR-5 ovarian
[33] = system: A498 renal
[34] = system: HCT-15 colon
[35] = system: KM12 colon
[36] = system: OVCAR-4 ovarian
[37] = system: SR leukemia
[38] = system: K-562 leukemia
[39] = system: A549 NSCLC
[40] = system: IGROV1 ovarian
[41] = system: SN12C renal
[42] = system: CCRF-CEM leukemia
[43] = system: 786-0 renal
[44] = system: NCI-H226 lung
[45] = system: OVCAR-3 ovarian
[46] = system: SNB-75 CNS
[47] = system: TK-10 renal
[48] = system: HCC-2998 colon
[49] = system: DU-145 prostate
[50] = system: COLO 205 colon
[51] = system: M14 melanoma
[52] = system: MALME-3M melanoma
[53] = system: ACHN renal
[54] = system: HOP-92 NSCLC
[55] = system: PC-3 prostate

With `CCOC(=O)N1C/C(=C/c2ccc(Cl)cc2)C(=O)/C(=C/c2ccc(Cl)cc2)C1` the GI50 [1] was 4.57 µM, the TGI [1] was > 100 µM and the GI50 [2] was 2.88 µM. For the same compound, the TGI [2] was 9.37 µM, the GI50 [3] was 1.97 µM and the TGI [3] was 3.95 µM. For the same compound, the GI50 [4] was 9.77 µM, the TGI [4] was 22.4 µM and the GI50 [5] was 3.33 µM. For the same compound, the TGI [5] was 13 µM, the GI50 [6] was 2.47 µM and the TGI [6] was 5.72 µM. It also gave a GI50 [7] of 3.43 µM, a TGI [7] of 13.1 µM and a GI50 [8] of 19.6 µM. The TGI [8] was 40.9 µM, the GI50 [9] was 3.94 µM and the TGI [9] was 41.8 µM. The GI50 [10] was 7.04 µM, the TGI [10] was 88.7 µM and the GI50 [11] was 3 µM. The TGI [11] was 14.3 µM, the GI50 [12] was 1.98 µM and the TGI [12] was 4.18 µM. The GI50 [13] was 3.43 µM, the TGI [13] was 12.7 µM and the GI50 [14] was 2.67 µM. For the same compound, the TGI [14] was 7.81 µM, the GI50 [15] was 1.04 µM and the TGI [15] was 2.72 µM. For the same compound, the GI50 [16] was 1.69 µM, the TGI [16] was 3.34 µM and the GI50 [17] was 2.41 µM. It also gave a TGI [17] of 5.6 µM, a GI50 [18] of 3.74 µM and a TGI [18] of 35.5 µM. For the same compound, the GI50 [19] was 3.86 µM, the TGI [19] was 16.4 µM and the GI50 [20] was 2.36 µM. For the same compound, the TGI [20] was 7.2 µM, the GI50 [21] was 3.86 µM and the TGI [21] was 14.7 µM. For the same compound, the GI50 [22] was 4.66 µM, the TGI [22] was 18.4 µM and the GI50 [23] was 8.54 µM. The TGI [23] was 23.9 µM, the GI50 [24] was 5.42 µM and the TGI [24] was 20.8 µM. The GI50 [25] was 4.65 µM, the TGI [25] was > 100 µM and the GI50 [26] was 3.81 µM. The TGI [26] was 86.4 µM, the GI50 [27] was 2.06 µM and the TGI [27] was 4.73 µM. For the same compound, the GI50 [28] was 7.45 µM, the TGI [28] was 95.6 µM and the GI50 [29] was 5.37 µM. For the same compound, the TGI [29] was 27.7 µM, the GI50 [30] was 1.55 µM and the TGI [30] was 8.04 µM. It also gave a GI50 [31] of 1.89 µM, a TGI [31] of 4.22 µM and a GI50 [32] of 4.43 µM. For the same compound, the TGI [32] was 19.8 µM, the GI50 [33] was 12 µM and the TGI [33] was 26.4 µM. It also gave a GI50 [34] of 2.18 µM, a TGI [34] of 7.24 µM and a GI50 [35] of 2.1 µM. The TGI [35] was 4.39 µM, the GI50 [36] was 3.35 µM and the TGI [36] was 14.4 µM. The GI50 [37] was 1.49 µM, the TGI [37] was > 100 µM and the GI50 [38] was 3.34 µM. The TGI [38] was > 100 µM, the GI50 [39] was 3.06 µM and the TGI [39] was 20.7 µM. For the same compound, the GI50 [40] was 3.52 µM, the TGI [40] was 13 µM and the GI50 [41] was 2.84 µM. For the same compound, the TGI [41] was 11.7 µM, the GI50 [42] was 3.24 µM and the TGI [42] was > 100 µM. The GI50 [43] was 2.08 µM, the TGI [43] was 4.35 µM and the GI50 [44] was 16.9 µM. The TGI [44] was 52 µM, the GI50 [45] was 2.22 µM and the TGI [45] was 4.57 µM. The GI50 [46] was 3.15 µM, the TGI [46] was 16.2 µM and the GI50 [47] was 5.01 µM. The TGI [47] was 17.6 µM, the GI50 [48] was 2.32 µM and the TGI [48] was 5.29 µM. The GI50 [49] was 4.36 µM, the TGI [49] was 15.9 µM and the GI50 [50] was 2.96 µM. It also gave a TGI [50] of 8.83 µM, a GI50 [51] of 4.23 µM and a TGI [51] of 17.8 µM. The GI50 [52] was 15.4 µM, the TGI [52] was 32 µM and the GI50 [53] was 3.04 µM. The TGI [53] was 10.5 µM, the GI50 [54] was 10.5 µM and the TGI [54] was 32 µM. It also gave a GI50 [55] of 2.94 µM and a TGI [55] of 15 µM.
